This assay deals with BDF1 mice, colon carcinoma 38 sc, T/C %. Briefly: NCI In Vivo Anticancer Drug Screen. Data for tumor model Colon Carcinoma 38 (subcutaneous) in B6D2F1 (BDF1) mice. In outline:
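Ratio of survival or tumor size, compound-treated animals relative to vehicle controls, in tumor-bearing mice.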

[1] abbreviates: endpoint: median tumor weight (est.), dose: 100.0 mg/kg/injection, schedule: Q07DX002 (ip), vehicle: suspension in saline, higher = larger tumour.
Where [2] appears, read: endpoint: median tumor weight (est.), dose: 200.0 mg/kg/injection, schedule: Q07DX002 (ip), vehicle: suspension in saline, higher = larger tumour.
[3] abbreviates: endpoint: median tumor weight (est.), dose: 50.0 mg/kg/injection, schedule: Q07DX002 (ip), vehicle: saline with Tween-80, higher = larger tumour.
Where [4] appears, read: endpoint: median tumor weight (est.), dose: 200.0 mg/kg/injection, schedule: Q07DX002 (ip), vehicle: saline with Tween-80, higher = larger tumour.
The mark [5] stands for this setting: endpoint: median tumor weight (est.), dose: 100.0 mg/kg/injection, schedule: Q07DX002 (ip), vehicle: saline with Tween-80, higher = larger tumour.
[6] abbreviates: endpoint: median tumor weight (est.), dose: 400.0 mg/kg/injection, schedule: Q07DX002 (ip), vehicle: saline with Tween-80, higher = larger tumour.
The mark [7] stands for this setting: endpoint: median tumor weight (est.), dose: 12.5 mg/kg/injection, schedule: Q07DX002 (ip), vehicle: saline with Tween-80, higher = larger tumour.
Where [8] appears, read: endpoint: median tumor weight (est.), dose: 25.0 mg/kg/injection, schedule: Q07DX002 (ip), vehicle: saline with Tween-80, higher = larger tumour.

Where “and” joins values, the source holds several entries; their conditions need not be identical. Equal entries are not always repeated. Records with an inconclusive call do not appear.

In the case of `C=C1C(C)C2C(Cc3ccccc3)NC(=O)C23C(OC(C)=O)/C=C/C(C)(O)CC(C)C/C=C/C3C1O` (stereo unspecified), the T/C (endpoint: median tumor weight (est.), dose: 0.75 mg/kg/injection, schedule: Q07DX002 (ip), vehicle: Klucel (hydroxypropylcellulose) (HPC), higher = larger tumour) was 86 % of control; the T/C (endpoint: median tumor weight (est.), dose: 1.5 mg/kg/injection, schedule: Q07DX002 (ip), vehicle: Klucel (hydroxypropylcellulose) (HPC), higher = larger tumour) is 115 % of control; the T/C (endpoint: median tumor weight (est.), dose: 3.0 mg/kg/injection, schedule: Q07DX002 (ip), vehicle: Klucel (hydroxypropylcellulose) (HPC), higher = larger tumour) is 77 % of control; the T/C (endpoint: median tumor weight (est.), dose: 6.0 mg/kg/injection, schedule: Q07DX002 (ip), vehicle: Klucel (hydroxypropylcellulose) (HPC), higher = larger tumour) was 100 % of control; the T/C (endpoint: median tumor weight (est.), dose: 12.0 mg/kg/injection, schedule: Q07DX002 (ip), vehicle: Klucel (hydroxypropylcellulose) (HPC), higher = larger tumour) is 95 % of control; the T/C (endpoint: median tumor weight (est.), dose: 24.0 mg/kg/injection, schedule: Q07DX002 (ip), vehicle: Klucel (hydroxypropylcellulose) (HPC), higher = larger tumour) is 90 % of control.
Regarding `COc1cccc2c1C(=O)c1c(O)c3c(c(O)c1C2=O)CC(O)(/C(C)=N/NC(=O)CCC(=O)N/N=C(\C)C1(O)Cc2c(O)c4c(c(O)c2C(OC2CC(N)C(O)C(C)O2)C1)C(=O)c1c(OC)cccc1C4=O)CC3OC1CC(N)C(O)C(C)O1` (stereo unspecified), the T/C (endpoint: median survival time, dose: 28.0 mg/kg/injection, schedule: Q07DX003 (sc), vehicle: water, higher = longer survival) was 107 % of control; the T/C (endpoint: median survival time, dose: 73.0 mg/kg/injection, schedule: Q07DX003 (sc), vehicle: water, higher = longer survival) was 100 % of control; the T/C (endpoint: median survival time, dose: 118.0 mg/kg/injection, schedule: Q07DX003 (sc), vehicle: water, higher = longer survival) was 175 % of control; the T/C (endpoint: median tumor weight (est.), dose: 4.0 mg/kg/injection, schedule: Q07DX002 (ip), vehicle: distilled water + Tween-80, higher = larger tumour) is 97 % of control; the T/C (endpoint: median tumor weight (est.), dose: 8.0 mg/kg/injection, schedule: Q07DX002 (ip), vehicle: distilled water + Tween-80, higher = larger tumour) is 90 % of control; the T/C (endpoint: median tumor weight (est.), dose: 8.0 mg/kg/injection, schedule: Q07DX002 (ip), vehicle: water, higher = larger tumour) was 104 % of control. Besides, the T/C (endpoint: median tumor weight (est.), dose: 9.48 mg/kg/injection, schedule: Q07DX002 (ip), vehicle: water, higher = larger tumour) was 9 % of control; the T/C (endpoint: median tumor weight (est.), dose: 14.2 mg/kg/injection, schedule: Q07DX002 (ip), vehicle: water, higher = larger tumour) was 2 % of control; the T/C (endpoint: median tumor weight (est.), dose: 16.0 mg/kg/injection, schedule: Q07DX002 (ip), vehicle: distilled water + Tween-80, higher = larger tumour) was 69 % of control; the T/C (endpoint: median tumor weight (est.), dose: 16.0 mg/kg/injection, schedule: Q07DX002 (ip), vehicle: water, higher = larger tumour) is 90 % of control; the T/C (endpoint: median tumor weight (est.), dose: 32.0 mg/kg/injection, schedule: Q07DX002 (ip), vehicle: distilled water + Tween-80, higher = larger tumour) is 59 % of control; the T/C (endpoint: median tumor weight (est.), dose: 32.0 mg/kg/injection, schedule: Q07DX002 (ip), vehicle: water, higher = larger tumour) is 54 % of control. In addition, the T/C (endpoint: median tumor weight (est.), dose: 64.0 mg/kg/injection, schedule: Q07DX002 (ip), vehicle: distilled water + Tween-80, higher = larger tumour) was 4 % of control.
For `CC1(C)COCN1COC1CCCCC1`, the T/C was 84 % of control (endpoint: median tumor weight (est.), dose: 25.0 mg/kg/injection, schedule: Q07DX002 (ip), vehicle: suspension in saline, higher = larger tumour); 93 % of control (endpoint: median tumor weight (est.), dose: 50.0 mg/kg/injection, schedule: Q07DX002 (ip), vehicle: suspension in saline, higher = larger tumour); 97 % of control under setting [1]; 64 % of control under setting [2].
For the compound `CO[C@@H]1[C@H](O)CC[C@]2(CO2)[C@H]1[C@@]1(C)O[C@@H]1CC=C(C)C`, the T/C is 46 % of control and 55 % of control (endpoint: median tumor weight (est.), dose: 3.12 mg/kg/injection, schedule: Q07DX002 (ip), vehicle: saline with Tween-80, higher = larger tumour); 50 % of control and 61 % of control (endpoint: median tumor weight (est.), dose: 6.25 mg/kg/injection, schedule: Q07DX002 (ip), vehicle: saline with Tween-80, higher = larger tumour); 63 % of control and 68 % of control and 71 % of control under setting [3]; 92 % of control under setting [4].
Consider `Cc1cc(O)c(O)c(Oc2cc(C)cc(O)c2O)c1`, for which the T/C runs as follows: (endpoint: median tumor weight (est.), dose: 0.35 mg/kg/injection, schedule: Q07DX002 (ip), vehicle: saline, higher = larger tumour) 96 % of control; (endpoint: median tumor weight (est.), dose: 0.7 mg/kg/injection, schedule: Q07DX002 (ip), vehicle: saline, higher = larger tumour) 78 % of control; (endpoint: median tumor weight (est.), dose: 1.4 mg/kg/injection, schedule: Q07DX002 (ip), vehicle: saline, higher = larger tumour) 77 % of control.
With `CC[C@](C)(O)C(=O)O[C@H]1C(=O)O[C@@H]2C[C@H]3C(C)=CC(=O)[C@@H](O)[C@]3(C)[C@H]3[C@@]4(O)OC[C@]32[C@@H]1[C@@H](C)[C@H]4O`, the T/C reads like this: (endpoint: median tumor weight (est.), dose: 0.13 mg/kg/injection, schedule: Q07DX002 (ip), vehicle: saline with Tween-80, higher = larger tumour) 91 % of control; (endpoint: median tumor weight (est.), dose: 0.25 mg/kg/injection, schedule: Q07DX002 (ip), vehicle: saline with Tween-80, higher = larger tumour) 90 % of control; (endpoint: median tumor weight (est.), dose: 0.5 mg/kg/injection, schedule: Q07DX002 (ip), vehicle: saline with Tween-80, higher = larger tumour) 60 % of control; (endpoint: median tumor weight (est.), dose: 1.0 mg/kg/injection, schedule: Q07DX002 (ip), vehicle: saline with Tween-80, higher = larger tumour) 62 % of control; (endpoint: median tumor weight (est.), dose: 2.0 mg/kg/injection, schedule: Q07DX002 (ip), vehicle: saline with Tween-80, higher = larger tumour) 47 % of control.
For the compound `C[Si](C)(CCl)N[Si](C)(C)CCl`, the T/C runs as follows: under setting [3], 99 % of control; under setting [5], 100 % of control; under setting [6], 150 % of control.
For `O=C(Nc1cccc(Cl)c1)ON1C(=O)C2C(C1=O)C1(Cl)C(Cl)C(Cl)C2(Cl)C1(Cl)Cl` (stereo unspecified), the T/C is 95 % of control under setting [5], 89 % of control under setting [4] and 58 % of control under setting [6].
For `O=C1N=C(Oc2ccccc2)SC1=O`, the T/C runs as follows: under setting [7], 95 % of control; under setting [8], 62 % of control and 80 % of control; under setting [3], 53 % of control; under setting [5], 88 % of control; under setting [4], 118 % of control.
Take `C[C@]12C=CC(=O)C=C1CC[C@@H]1[C@@H]2[C@@H](O)C[C@@]2(C)[C@H]1CC[C@]2(O)C(=O)CO`: the T/C reads like this: (endpoint: median tumor weight (est.), dose: 40.0 mg/kg/injection, schedule: Q07DX003 (ip), vehicle: Klucel (hydroxypropylcellulose) (HPC), higher = larger tumour) 100 % of control; (endpoint: median tumor weight (est.), dose: 80.0 mg/kg/injection, schedule: Q07DX003 (ip), vehicle: Klucel (hydroxypropylcellulose) (HPC), higher = larger tumour) 56 % of control; (endpoint: median tumor weight (est.), dose: 160.0 mg/kg/injection, schedule: Q07DX003 (ip), vehicle: Klucel (hydroxypropylcellulose) (HPC), higher = larger tumour) 58 % of control; (endpoint: median tumor weight (est.), dose: 320.0 mg/kg/injection, schedule: Q07DX003 (ip), vehicle: Klucel (hydroxypropylcellulose) (HPC), higher = larger tumour) 30 % of control; (endpoint: median tumor weight (est.), dose: 640.0 mg/kg/injection, schedule: Q07DX003 (ip), vehicle: Klucel (hydroxypropylcellulose) (HPC), higher = larger tumour) 24 % of control.
For the compound `Nc1nc2c(ncn2C2OC(CO)C(O)C2O)c(=O)[nH]1` (stereo unspecified), the T/C runs as follows: under setting [1], 100 % of control; under setting [2], 117 % of control; (endpoint: median tumor weight (est.), dose: 400.0 mg/kg/injection, schedule: Q07DX002 (ip), vehicle: suspension in saline, higher = larger tumour) 94 % of control; (endpoint: median tumor weight (est.), dose: 800.0 mg/kg/injection, schedule: Q07DX002 (ip), vehicle: suspension in saline, higher = larger tumour) 105 % of control; (endpoint: median tumor weight (est.), dose: 1600.0 mg/kg/injection, schedule: Q07DX002 (ip), vehicle: suspension in saline, higher = larger tumour) 90 % of control.
Take `COc1cc(C2c3cc4c(cc3C(O)C(CO)C2CO)OCO4)cc(OC)c1OC` (stereo unspecified): the T/C is 81 % of control under setting [7]; 155 % of control under setting [8]; 180 % of control under setting [3]; 203 % of control under setting [5]; 160 % of control under setting [4]; 174 % of control under setting [6].
Regarding `CC[C@H]1CN2CCc3cc(OC)c(OC)cc3[C@@H]2C[C@@H]1C[C@H]1NCCc2cc(OC)c(OC)cc21`, the T/C is 57 % of control (endpoint: median tumor weight (est.), dose: 1.75 mg/kg/injection, schedule: Q07DX002 (ip), vehicle: saline, higher = larger tumour); 74 % of control (endpoint: median tumor weight (est.), dose: 3.5 mg/kg/injection, schedule: Q07DX002 (ip), vehicle: saline, higher = larger tumour); 84 % of control (endpoint: median tumor weight (est.), dose: 7.0 mg/kg/injection, schedule: Q07DX002 (ip), vehicle: saline, higher = larger tumour); 89 % of control (endpoint: median tumor weight (est.), dose: 14.0 mg/kg/injection, schedule: Q07DX002 (ip), vehicle: saline, higher = larger tumour); 74 % of control (endpoint: median tumor weight (est.), dose: 28.0 mg/kg/injection, schedule: Q07DX002 (ip), vehicle: saline, higher = larger tumour).
Turning to `O=C([CH-]C(=O)C(F)(F)F)c1ccccc1.O=C([CH-]C(=O)C(F)(F)F)c1ccccc1.O=C([CH-]C(=O)C(F)(F)F)c1ccccc1.O=C([CH-]C(=O)C(F)(F)F)c1ccccc1.[Eu+3].c1ccncc1`, the T/C by setting is: (endpoint: median tumor weight (est.), dose: 25.0 mg/kg/injection, schedule: Q07DX002 (ip), vehicle: Klucel (hydroxypropylcellulose) (HPC), higher = larger tumour) 91 % of control; (endpoint: median tumor weight (est.), dose: 50.0 mg/kg/injection, schedule: Q07DX002 (ip), vehicle: Klucel (hydroxypropylcellulose) (HPC), higher = larger tumour) 88 % of control; (endpoint: median tumor weight (est.), dose: 100.0 mg/kg/injection, schedule: Q07DX002 (ip), vehicle: Klucel (hydroxypropylcellulose) (HPC), higher = larger tumour) 76 % of control and 82 % of control; (endpoint: median tumor weight (est.), dose: 200.0 mg/kg/injection, schedule: Q07DX002 (ip), vehicle: Klucel (hydroxypropylcellulose) (HPC), higher = larger tumour) 79 % of control and 88 % of control.
